Results on 13 compounds are retold here after patent US12139478B2, “Compounds, compositions and methods” (Denali Therapeutics Inc., priority 2017, dated 2024).

For this experiment, the system named is ATF4 translation. The experiment can be described thus: ATF4 Nano Luciferase reporter integrated stress response (ISR) assay in H4 ATF4-NLuc cells. The format is cell-based, human. Conditions: H4 ATF4-NLuc (clone 17) cells, compound 30 minutes, then sodium arsenite for 6 additional hours, luminescence readout. An excerpt:
Cellular stress leads to activation of the integrated stress response pathway through one of four eukaryotic initiation factor 2a kinases and halts global translation, while allowing for the translation of select transcripts like ATF4 (activating transcription factor 4) that are important for the response to cellular stress. During normal conditions, small open reading frames (ORFs) in the 5′ UTR of ATF4 occupy the ribosome and prevent translation of the coding sequence of ATF4. During stress conditions however, the ribosome scans past these upstream ORFs and preferentially begins translation at the coding sequence of ATF4. In this way, the translation, and thus protein level of ATF4 is a readout of ISR pathway activation. Thus, a fusion of the uORFs and the beginning of the coding sequence of ATF to a common cellular reporter like nano-luciferase allows for a sensitive and high-throughput readout of ISR pathway activity.
Compounds as provided herein were tested in the following assay. The ATF4 Nano Luciferase reporter was constructed by fusing the human full length 5′ untranslated region (5′-UTR) and a small portion of the coding sequence of the ATF4 gene upstream of the Nano Luciferase (NLuc) coding sequence lacking it's start codon. Specifically, nucleotides +1 through +364 (relative to the transcriptional start site) of ATF4 transcript variant 2 (NCBI NM_182810.2) flanked 5′ by EcoRI and 3′ by BamHI restriction enzyme sites were synthesized and cloned into the EcoRI/BamHI cloning sites of pLVX-EF1a-IRES-Puro lentivirus vector (Clontech). Lentiviral particles were produced with Lenti-X single shots (VSV-G, Clontech) according to the manufacturer's instructions and used to transduce a human H4 neuroglioma cell line (ATCC HTB-148). H4 cells were selected with 1.25 μg/mL Puromycin, and clonal cell lines generated by limiting dilution. We utilized this cell line to generate an integrated stress response (ISR) assay to evaluate the activity of ISR pathway inhibitors via luminescence readout. The H4 ATF4-NLuc (clone 17) cell line is plated at a density of […] in 96-well or 384-well respectively in DMEM+[…]. 24-hours later test compounds diluted in dimethyl sulfoxide (DMSO) are added for 30 minutes at 37° C., followed by ISR pathway activation with […] sodium arsenite aqueous solution for 6 additional hours. Nano Glo luciferase reagent (N1150, Promega) is added according to manufacturer instructions and the luminescence signal (corresponding to the level of ATF4 translation and thus ISR pathway activation) is read with a standard plate reader with luminescence detection capabilities. […] In the tables below, activity of the tested compounds is provided, and in Table 3 as follows: […]; ++=IC50 1-10 μM; +=IC50>10 μM.
For orientation: Reporter assays use an easily measured gene product as a stand-in for the process of interest.

Where [1] appears, read: Homo sapiens, 0.5 h, read-out: Activity.
Where [2] appears, read: Homo sapiens, 0.5 h, read-out: Biological Example 1 (ATF4 translation, IC50 nM).

Like-named read-outs stand apart in the source and are kept apart here.

As for `O=C(COc1ccc(Cl)cc1)N[C@@H]1CC[C@@H](C(O)COC2CC(OC(F)(F)F)C2)OC1` (single isomer, unassigned) [Example 63], the IC50 by setting is: under setting [1], below 1000 nM; under setting [2], 3.9 nM.

With `O=C(COc1ccc(Cl)cc1)N[C@@H]1CC[C@@H](C(O)COC2CC(OC(F)(F)F)C2)OC1` (single isomer, unassigned) [Example 64], under “read-out: Activity”, the IC50 is below 1000 nM.

As to `O=C(N[C@@H]1CC[C@@H](c2nnc(C3CC(OC(F)(F)F)C3)o2)OC1)[C@H]1CCc2cc(F)ccc2O1` (single isomer, unassigned) [Example 65], the IC50 under setting [1] was below 1000 nM and the IC50 under setting [2] came out at 8.5 nM.

Consider `O=C(COc1ccc(Cl)c(F)c1)N[C@@H]1CC[C@@H](c2nnc(C3C[C@H]3COC(F)(F)F)o2)OC1` (single isomer, unassigned) [Example 69], for which the IC50 under setting [1] is below 1000 nM.

Take `O=C(COc1ccc(Cl)c(F)c1)N[C@@H]1CC[C@@H](c2nnc(C3C[C@H]3COC(F)(F)F)o2)OC1` (single isomer, unassigned) [Example 70]: the IC50 is below 1000 nM (read-out: Activity) and 8 nM under setting [2].

`CC(O)(COC1CC(OC(F)(F)F)C1)[C@@H]1CC[C@@H](NC(=O)COc2ccc(Cl)cc2)CO1` (single isomer, unassigned) [Example 71]: the IC50 under setting [1] is below 1000 nM.

`CC(O)(COC1CC(OC(F)(F)F)C1)[C@@H]1CC[C@@H](NC(=O)COc2ccc(Cl)cc2)CO1` (single isomer, unassigned) [Example 72]: under “read-out: Activity”, the IC50 was below 1000 nM.

As for `O=C(COc1ccc(Cl)c(F)c1)N[C@@H]1CC[C@@H](c2nnc([C@H]3C[C@@H](OC(F)(F)F)C3)o2)OC1` [Example 1, 2-(4-chloro-3-fluoro-phenoxy)-N-[(3R,6S)-6-[5-[3-cis-(trifluoromethoxy)cyclobutyl]-1,3,4-oxadiazol-2-yl]tetrahydropyran-3-yl]acetamide], the IC50 under setting [1] is below 1000 nM.

On to `O=C(COc1ccc(Cl)cc1)N[C@@H]1CC[C@@H](c2nnc([C@H]3C[C@@H](OC(F)(F)F)C3)o2)OC1` [Example 2, 2-(4-chlorophenoxy)-N-[(3R,6S)-6-[5-[3-cis-(trifluoromethoxy)cyclobutyl]-1,3,4-oxadiazol-2-yl]tetrahydropyran-3-yl]acetamide], for which the IC50 was below 1000 nM under setting [1] and 2.7 nM under setting [2].

Take `O=C(COC1CC(OC(F)(F)F)C1)N[C@@H]1CC[C@@H](c2nnc([C@H]3C[C@@H](OC(F)(F)F)C3)o2)OC1` (stereo partly drawn) [Example 3, 2-[3-cis-(trifluoromethoxy)cyclobutoxy]-N-[(3R,6S)-6-[5-[(cis)-3-(trifluoromethoxy)cyclobutyl]-1,3,4-oxadiazol-2-yl]tetrahydropyran-3-yl]acetamide]: the IC50 under setting [1] was below 1000 nM.

Take `O=C(N[C@@H]1CC[C@@H](c2nnc([C@H]3C[C@@H](OC(F)(F)F)C3)o2)OC1)[C@H]1C[C@@H]1COC(F)(F)F` [Example 4, (1R,2R)—N-[(3R,6S)-6-[5-[3-cis-(trifluoromethoxy)cyclobutyl]-1,3,4-oxadiazol-2-yl]tetrahydropyran-3-yl]-2-(trifluoromethoxymethyl)cyclopropanecarboxamide]: the IC50 under setting [1] lay within 1000 to 10000 nM.

Regarding `O=C(COC1CC(OC(F)(F)F)C1)NC12CCC(c3nnc([C@H]4C[C@@H](OC(F)(F)F)C4)o3)(CC1)OC2` (stereo partly drawn) [Example 14, 2-[3-cis-(trifluoromethoxy)cyclobutoxy]-N-[1-[5-[3-cis-(trifluoromethoxy)cyclobutyl]-1,3,4-oxadiazol-2-yl]-2-oxabicyclo[2.2.2]octan-4-yl]acetamide], the IC50 under setting [1] was below 1000 nM.

With `O=C(COC1CC(OC(F)(F)F)C1)N[C@@H]1CC[C@@H](c2cnn([C@H]3C[C@@H](OC(F)(F)F)C3)n2)OC1` (stereo partly drawn) [Example 17, 2-[3-cis-(trifluoromethoxy)cyclobutoxy]-N-[(3R,6S)-6-[2-[3-cis-(trifluoromethoxy)cyclobutyl]triazol-4-yl]tetrahydropyran-3-yl]acetamide], the IC50 under setting [1] was below 1000 nM.
